Legend:
Details in all cases: in supplemented diet
HDL-cholesterol = test: Test A: In vivo HDL-cholesterol test; set-up: species or system Male Sprague-Dawley rats
Description: a) Test A: In vivo HDL-cholesterol test: Male Sprague-Dawley rats weighing 200-225 g are housed two per cage and fed Purina Rodent Chow Special Mix 5001-S supplemented with 0.25 % cholic acid and 0.75 % cholesterol by Purina and water ad libitum for seven or eight days. Each test substance is then administered to a group of six rats in the supplemented diet for eight or twenty-one days, the test substance constituing 0.005-0.20 % of the diet. Body weight and food consumption data are recorded prior to diet administration, prior to test substance administration and at termination. Typical doses of the test substance are 4-200 mg/kg/day. At termination, the rats are anesthetized, sacrificed by exsanguination, the blood is collected, kept on ice while clotting, centrifuged, and the serum is separated. […] Remaining sera aliquots are refrigerated and frozen for storage. HDL is isolated by micro-ultracentrifugation (mUC) or fast protein liquid chromatography (FPLC) techniques. The mUC method is as follows: 175 µl of the 1.06 g/ml density-adjusted blood serum is centrifuged at 42000 rpm in a Beckmann 42.2 Ti rotor at 20°C for 2.5 hours. 95 µl is fractionated from the top, leaving 80 µl in the bottom. FPLC fractionation is performed by Superose^R 6 (highly cross-linked beaded agarose having a dry bead diameter of 20-40 µm) gel permeation chromatography using the method of Kieft et al., J.Lipid Res. 32 (1991) 859-866 modified by the technique described in France et al., Laboratory Robotics and Automation 2 (1990) 155-173. The column buffer is Tris buffered saline solution [i.e. 0.05 M Tris (2-amino-2-hydroxymethyl-1,3-propanediol) and 0.15 M sodium chloride in distilled deionized water (ddH₂O)] containing 0.01 % sodium azide. 200 µl of serum is injected and forty 0.5 ml fractions are collected. Cholesterol is assayed on total, 42.2 Ti rotor bottoms and FPLC fractions using the Sigma Diagnostics kit for the enzymatic determination of cholesterol, Procedure No. 352, modified for use with ninety-six well microtiter plates. The reconstituted reagent (after addition of water) contains 300 U/l cholesterol oxidase, 100 U/l cholesterol esterase, 1000 U/l peroxidase (horseradish), 0.3 mmoles/l 4-aminoantipyrine and 30.0 mmoles/l p-hydroxybenzenesulfonate in a pH 6.5 buffer. This method uses cholesterol esterase to hydrolyze cholesterol esters to free cholesterol. Free cholesterol is oxidized to produce hydrogen peroxide that is used to form a quinoneimine dye. Since the reaction takes place quantitatively, the concentration of the dye, measured colorimetrically, is directly proportional to the cholesterol content of the sample. Calibrator, standard and sample may be diluted with saline if cholesterol concentrations cause readings outside the linear range. 20 µl of calibrator, standard or test sample is mixed with a 200 µl aliquot of reagent in a ninety-six well microtiter plate. Each mixture is incubated at 20°-25° for 25 minutes, and absorbance is determined by a colorimetric microtiter plate reader at 490, 492 or 500 nm. Top cholesterol (i.e. LDL-cholesterol) is determined by subtraction. Quality of micro-ultracentrifugation separation is determined by Corning universal agarose gel electrophoresis with Fat Red 7B stain. FPLC fraction Apo A-I content is assessed by the non-reducing SDS-PAGE method of France et al., J. Lipid Res. 30 (1989) 1997-2004. HDL-cholesterol is quantitated by assessing the cholesterol content of fractions containing Apo A-I and lacking immunoreactive Apo B protein. Other conventional methods may be used to assay the blood serum samples for HDL-cholesterol and total triglyceride content.

Apo A-I = test: Test B: Apo A-I test (rat Apo A-I ELISA on blood serum of the test animals of Test A); format: in vivo
Description: The Apo A-I blood serum level of the test animals of Test A is determined by rat Apo A-I Enzyme-Linked Immunosorbent Assay (ELISA) as follows:
1. Production and purification of rabbit anti-rat Apo A-I antibody:
Rat Apo A-I is purified from pooled rat blood serum by sequential ultracentrifugation and isolation of rat high-density lipoproteins (HDL). Following delipidation, Apo A-I is resolved from other HDL proteins by gel filtration chromatography. Antisera are raised in three rabbits (Pocono Rabbit Farms, Candensis, PA) by serial subcutaneous injections of purified rat Apo A-I by conventional immunization protocols. After one year of repeated bleedings, antisera are pooled, aliquoted and frozen at -20°. The crude antisera are defrosted, applied to a cyanogen bromide-activated Sepharose^R Cl-4B (beaded agarose having a 60-140 µm dry bead diameter) column to which purified human HDL had been covalently linked, the column is washed with saline, and the purified antibody is eluted with 1 M pH 3 glycine solution. The glycine is removed by dialysis utilizing Tris Buffered Saline Solution to obtain a concentrated solution of purified rabbit anti-rat Apo A-I antibody.
2. Buffers, reagents and standards:
• Sodium carbonate adsorption buffer: 2.25 g of sodium carbonate, 4.40 g of sodium bicarbonate and 0.15 g of sodium azide are dissolved in 1.4 l of ddH₂O, the pH is adjusted to 9.6 with sodium hydroxide, and the buffer is diluted with ddH₂O to a total volume of 1.5 l; • pH 8 0.5 M Tris: a solution of 60.55 g of Tris·HCl (2-amino-2-hydroxymethyl-1,3-propanediol·hydrochloride) in 1.0 l of ddH₂O is adjusted to pH 8.0 with 10 N sodium hydroxide solution; • secondary antibody buffer: 200 ml of pH 8 0.5 M Tris is added to a solution of 40 g of bovine serum albumin (BSA) Cohn Fraction V in 1.8 l of ddH₂O, 0.2 g of sodium azide is added, and 18.0 g of sodium chloride is added; • substrate buffer: 0.1 g of sodium azide is added with stirring to 105.1 g of diethanolamine and 500 ml of ddH₂O, 10 ml of 0.5 M magnesium chloride·hexahydrate solution is added, the pH is adjusted to 9.8 with 12 N hydrochloric acid, and the solution is diluted to a total volume of 1 l with ddH₂O; • 30 x ELISA wash buffer: 525.96 g of sodium chloride, 76.68 g of Tris, 6 g of sodium azide and 30 ml of Tween^R20 [polyoxyethylene (20) sorbitan monolaurate] are combined, the pH is adjusted to 7.3 with 12 N hydrochloric acid, and the solution is diluted to a total volume of 2 l with ddH₂O; • 1 x ELISA wash buffer: 1 volume of 30 x ELISA wash buffer is diluted with 29 volumes of ddH₂O; • sample diluent buffer: 886.34 ml of secondary antibody buffer and 113.66 ml of Tween^R20 are mixed well to obtain an 11.366 % v/v Tween^R20 solution; • standard diluent buffers: (A) 780 mi of secondary antibody buffer and 220 ml of Tween^R20 are mixed well to obtain a 22 % v/v Tween^R20 solution. (B) 890 ml of secondary antibody buffer and 110 ml of Tween^R20 are mixed well to obtain an 11 % v/v Tween^R20 solution; • rat serum pool A: this source of rat blood serum is used to construct the standard curve for each assay. It is calibrated against purified Apo A-I and contains 45 ± 2.7 mg Apo A-I/dl blood serum; • rat serum pool B: this is used as a low internal standard in each assay for monitoring assay drift and contains 40 mg Apo A-I/dl blood serum; • rat serum pool C: this is derived from rats treated with reference compound (gemfibrozil), is used as a high internal standard for monitoring assay drift and contains 70 mg Apo A-I/dl blood serum.
Purified rat Apo A-I from a frozen stock containing 942 µg/ml is diluted in sodium carbonate adsorption buffer to a final concentration of 3.7 µg/ml. Into each well of several Nunc polystyrene ninety-six well microtiter plates is added 100 µl of this solution. Apo A-I is allowed to adsorb onto the plates for 48 hours at 4°. […]

Total triglycerides = Total triglycerides in blood serum of the rats of Test A; format: in vivo, Male Sprague-Dawley rats
Description: Male Sprague-Dawley rats weighing 200-225 g are housed two per cage and fed Purina Rodent Chow Special Mix 5001-S supplemented with 0.25 % cholic acid and 0.75 % cholesterol by Purina and water ad libitum for seven or eight days. Each test substance is then administered to a group of six rats in the supplemented diet for eight or twenty-one days, the test substance constituing 0.005-0.20 % of the diet. Body weight and food consumption data are recorded prior to diet administration, prior to test substance administration and at termination. Typical doses of the test substance are 4-200 mg/kg/day.
At termination, the rats are anesthetized, sacrificed by exsanguination, the blood is collected, kept on ice while clotting, centrifuged, and the serum is separated. […] Remaining sera aliquots are refrigerated and frozen for storage.
Total triglycerides are assayed on blood serum using the Boehringer Mannheim Diagnostics Reagentset^R Triglycerides-GB kit (Cat. No. 877557) modified for microtiter plate assays as follows: The reagents are prepared according to the described method. 100 µl of Working Solution 1 and 20 µl of dilute blood serum [1:1 blood serum:saline (saline is 0.15 M sodium chloride in ddH₂O)] are added to each well of a ninety-six well microtiter plate, mixed and incubated at 20°-25° for at least 5 minutes. 100 µl of working solution 2 is added to each well, and the contents are mixed and incubated at 20°-25° for at least 5 minutes and read at 490, 492 or 500 nm. The total triglyceride content in mg/dl of blood serum is calculated by comparing the absorbance with the absorbance of known samples.
Other conventional methods may be used to assay the blood serum samples for HDL-cholesterol and total triglyceride content.

[1] = duration of treatment 8 days, dose mg/kg/day: Example 1 60, Example 2 79, Gemfibrozil 50
[2] = duration of treatment 21 days, dose mg/kg/day: Example 1 65, Example 2 73, Gemfibrozil 44

Compound	HDL-cholesterol level increase (%) (HDL-cholesterol; [1])	HDL-cholesterol level increase (%) (HDL-cholesterol; [2])	Apo-I level increase (%) (Apo A-I; [1])	Apo-I level increase (%) (Apo A-I; [2])	Total triglycerides level decrease (%) (Total triglycerides; [1])	Total triglycerides level decrease (%) (Total triglycerides; [2])
Cc1ccc(C)c(OCCCC(C)(C)C(=O)O)c1 [Gemfibrozil, reference compound]	100%	106%	50%	44%	35%	43%
CCCNC(=S)Nc1cc(Cl)ccc1C [Example 1, N-(5-Chloro-2-methylphenyl)-N'-propylthiourea]	225%	256%	65%	47%	45%	70%
Cc1ccc(Cl)cc1NC(=S)NCC(C)C [Example 2, N-(5-Chloro-2-methylphenyl)-N'-2-methylpropylthiourea]	267%	323%	69%	102%	49%	44%
